Measurements reported in patent publication US6723364B1, “Fog treatment method using a liquid composition for treating fruits and vegetables and implementing device” (Xeda International, priority 1998, dated 2004).

Test system: potato tubers
Assay: Sprouting-inhibiting treatment of potato tubers by thermal fogging
Format: in vivo
Conditions: after 5 months; cold room 8 to 9° C.; 45 g/tonne then 15 g/tonne every 20 days by thermal fogging
Procedure: The effectiveness of eugenol and of isoeugenol in the sprouting-inhibiting treatment of potato tubers was evaluated and compared with that of other terpenes.
The following compositions were used in the case of eucalyptol, eugenol, isoeugenol, limonene, safrole and terpineol:
60% by weight of terpene;
7% by weight of a nonionic emulsifier;
33% by weight of butyl acetate.
In the case of L-carvone, the following composition was employed:
30% by weight of L-carvone;
10% by weight of ethanol;
5% by weight of nonionic emulsifier;
35% by weight of propylene glycol.
Isopropyl chlorophenylcarbamate (CIPC) is a compound used in the art as sprouting inhibitor for potato tubers. Its activity was compared with that of eugenol and of isoeugenol.
The composition based on isopropyl chloro-phenylcarbamate has the following formulation: […]
20% by weight of isopropyl chlorophenyl-carbamate;
50% by weight of propylene glycol;
10% by weight of nonionic emulsifier;
Each of the compositions tested was applied by thermal fogging. The temperature at the outlet of the thermal fogging device was 240° C., except in the case of the compositions based on L-carvone and on CIPC, where it was 180° C.
The amount of composition which has to be applied is calculated in each case so as to obtain an equivalent concentration of active material on the potato tubers.
In this example, repeated applications were carried out by following the following protocol:
45 g/tonne of tubers at the beginning of storage;
15 g/tonne of tubers every 20 days; so that, after 6 months, 165 g of active principle have been applied per tonne of tubers.
During storage, the tubers were stored in a cold room at a temperature of 8 to 9° C.

Compound	Loss in weight of the tubers	Total weight of the sprouts >2 mm	Tubers at the white point stage	Tubers with sprouts 2 to 5 mm	Tubers with sprouts <2 mm	Tubers with sprouts >2 mm	Tubers with sprouts >5 mm	Unsprouted tubers
L-carvone	3.3%	42.0 g	8.7%	28.8%	32.3%	55.0%	26.2%	4.0%
C=C(C)[C@H]1CC=C(C)CC1 [LIMONENE, limonene]	4.5%	283.8 g	1.2%	8.7%	1.5%	96.8%	88.1%	0.5%
